In patent publication US9422240B2, “Partially saturated nitrogen-containing heterocyclic compound” (TAISHO PHARMACEUTICAL CO., LTD, priority 2012, dated 2016):
Structures can show the parent of a compound that is named as a salt.

What was measured:
human PHD2 [1] = target: T1, human PHD2 (Homo sapiens (Human), UniProt Q9GZT9); assay: Test 2: human PHD2 inhibitory activity, fluorescence polarization assay of HIF-1α peptide proline hydroxylation; assay type: biochemical; details: read-out: Percent inhibition (% at 1 μM)
T1 sequence (Q9GZT9 whole entry): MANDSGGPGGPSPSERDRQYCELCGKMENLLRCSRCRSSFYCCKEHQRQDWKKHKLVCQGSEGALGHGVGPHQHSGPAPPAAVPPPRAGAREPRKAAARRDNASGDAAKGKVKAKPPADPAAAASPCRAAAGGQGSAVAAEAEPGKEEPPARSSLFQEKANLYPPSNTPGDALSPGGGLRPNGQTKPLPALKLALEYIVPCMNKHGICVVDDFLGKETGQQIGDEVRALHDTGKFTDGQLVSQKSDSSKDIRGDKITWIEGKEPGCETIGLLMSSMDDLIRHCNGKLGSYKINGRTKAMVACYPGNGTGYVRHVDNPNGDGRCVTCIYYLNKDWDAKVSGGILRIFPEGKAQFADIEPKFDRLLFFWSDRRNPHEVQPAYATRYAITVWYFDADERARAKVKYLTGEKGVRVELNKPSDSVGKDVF
Outline: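 A 19-mer HIF-1α peptide served as substrate, with the reaction started by 40 ng/well human PHD2 (cell lysate of NM_022051-transfected cells) and run 20 min at 30° C. before EDTA stop. Hydroxylated product bound anti-HIF-OH antibody, read by fluorescence polarization versus no-compound control.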

human PHD2 [2] = target: T1, human PHD2; assay: Test 1: human PHD2 inhibitory activity, [14C]-2-oxoglutarate to [14C]-succinic acid radiometric assay with HIF-1α peptide; assay type: biochemical; details: read-out: Percent inhibition (% at 1 μM)
Outline: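 Activity was measured by radiometric counting of [14C]-succinic acid formed during prolyl hydroxylation of a 19-mer HIF-1α peptide, after DNPH removal of residual [14C]-2-oxoglutarate. Baculovirus-expressed human PHD2 lysate (4 μg/well) reacted for 15 min at 37° C. Substrate-free and compound-free wells served as reference points for inhibition.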

[3] = test compound's concentration 1 μM, Test 2, fluorescence polarization assay
[4] = test compound's concentration 1 μM, Test 1, [14C]-2-oxoglutarate radiometric assay

SMILES	inhibition at 1 µM (human PHD2 [1]; [3])	inhibition at 1 µM (human PHD2 [2]; [4])	inhibition at 1 µM (human PHD2 [1])	inhibition at 1 µM (human PHD2 [2])
Cc1ccc(-c2ccc(CN3CCC(O)=C(C(=O)NCC(=O)O)C3=O)cc2)cc1 [Ex. 2-1, N-({4-Hydroxy-1-[(4′-methylbiphenyl-4-yl)methyl]-2-oxo-1,2,5,6-tetrahydropyridin-3-yl}carbonyl)glycine]	88%	93%	–	–
Cn1cc(-c2ccc(CN3CCC(O)=C(C(=O)NCC(=O)O)C3=O)cc2)cn1 [Ex. 2-6]	80%	68%	–	–
O=C(O)CNC(=O)C1=C(O)CCN(Cc2ccc(-c3cccnc3)cc2)C1=O [Ex. 2-7]	91%	88%	–	–
O=C(O)CNC(=O)C1=C(O)CCN(Cc2ccc(-c3cnoc3)cc2)C1=O [Ex. 2-8]	88%	87%	–	–
CC(C)c1cccc(-c2ccc(CN3CCC(O)=C(C(=O)NCC(=O)O)C3=O)cc2)c1 [Ex. 2-9]	82%	78%	–	–
O=C(O)CNC(=O)C1=C(O)CCN(Cc2ccc(-c3ccc(-c4ccccc4)cc3)cc2)C1=O [Ex. 2-10]	79%	84%	–	–
O=C(O)CNC(=O)C1=C(O)CCN(Cc2ccc(-c3ccc(Cl)cc3)cc2)C1=O [Ex. 2-11]	91%	93%	–	–
COc1ccc(-c2ccc(CN3CCC(O)=C(C(=O)NCC(=O)O)C3=O)cc2)cc1 [Ex. 2-12]	91%	93%	–	–
COc1ccc(-c2ccc(CN3CCC(O)=C(C(=O)NCC(=O)O)C3=O)cc2)cn1 [Ex. 2-13]	87%	92%	–	–
N#Cc1ccc(-c2ccc(CN3CCC(O)=C(C(=O)NCC(=O)O)C3=O)cc2)cc1 [Ex. 2-14]	93%	98%	–	–
CN(C)S(=O)(=O)c1ccc(-c2ccc(CN3CCC(O)=C(C(=O)NCC(=O)O)C3=O)cc2)cc1 [Ex. 2-15]	90%	97%	–	–
CC(=O)c1ccc(-c2ccc(CN3CCC(O)=C(C(=O)NCC(=O)O)C3=O)cc2)cc1 [Ex. 2-16]	93%	102%	–	–
Cn1nccc1-c1ccc(CN2CCC(O)=C(C(=O)NCC(=O)O)C2=O)cc1 [Ex. 2-17]	87%	94%	–	–
O=C(O)CNC(=O)C1=C(O)CCN(Cc2ccc(-c3ccsc3)cc2)C1=O [Ex. 2-18]	91%	98%	–	–
O=C(O)CNC(=O)C1=C(O)CCN(Cc2ccc(-c3ccncc3)cc2)C1=O [Ex. 2-19]	93%	96%	–	–
Cc1nc(C)c(-c2ccc(CN3CCC(O)=C(C(=O)NCC(=O)O)C3=O)cc2)s1 [Ex. 2-20]	93%	102%	–	–
O=C(O)CNC(=O)C1=C(O)CCN(Cc2ccc(-c3ccc(C(F)(F)F)nc3)cc2)C1=O [Ex. 2-21]	93%	88%	–	–
O=C(O)CNC(=O)C1=C(O)CCN(Cc2ccc(-c3cccc(Cl)c3)cc2)C1=O [Ex. 2-22]	94%	95%	–	–
O=C(O)CNC(=O)C1=C(O)CCN(Cc2ccc(-c3ccc(Cl)c(Cl)c3)cc2)C1=O [Ex. 2-23]	96%	88%	–	–
O=C(O)CNC(=O)C1=C(O)CCN(Cc2ccc(-c3ccc(C(F)(F)F)cc3)cc2)C1=O [Ex. 2-24]	93%	91%	–	–
Cc1cccc(-c2ccc(CN3CCC(O)=C(C(=O)NCC(=O)O)C3=O)cc2)c1 [Ex. 2-25]	96%	92%	–	–
COc1cccc(-c2ccc(CN3CCC(O)=C(C(=O)NCC(=O)O)C3=O)cc2)c1 [Ex. 2-26]	95%	90%	–	–
O=C(O)CNC(=O)C1=C(O)CCN(Cc2ccc(-c3ccc4ncccc4c3)cc2)C1=O [Ex. 2-27]	96%	100%	–	–
O=C(O)CNC(=O)C1=C(O)CCN(Cc2ccc(-c3ccc(F)cc3)cc2)C1=O [Ex. 2-28]	97%	90%	–	–
O=C(O)CNC(=O)C1=C(O)CCN(Cc2ccc(-c3ccc(F)cc3)c(F)c2)C1=O [Ex. 2-29]	95%	101%	–	–
O=C(O)CNC(=O)C1=C(O)CCN(Cc2ccc(-c3ccc(O)cc3)cc2)C1=O [Ex. 2-30]	99%	103%	–	–
O=C(O)CNC(=O)C1=C(O)CCN(Cc2ccc(C3CCCC3)cc2)C1=O [Ex. 3-1, N-{[1-(4-Cyclopentylbenzyl)-4-hydroxy-2-oxo-1,2,5,6-tetrahydropyridin-3-yl]carbonyl}glycine sodium salt]	–	–	95%	102%
O=C(O)CNC(=O)C1=C(O)CCN(Cc2ccc(C3CC3)cc2)C1=O [Ex. 3-2, N-{[1-(4-Cyclopropylbenzyl)-4-hydroxy-2-oxo-1,2,5,6-tetrahydropyridin-3-yl]carbonyl}glycine sodium salt]	–	–	90%	87%
COc1ccc(CN2CCC(O)=C(C(=O)NCC(=O)O)C2=O)c(OC)c1 [Ex. 4-1, N-{[1-(2,4-Dimethoxybenzyl)-4-hydroxy-2-oxo-1,2,5,6-tetrahydropyridin-3-yl]carbonyl}glycine]	67%	58%	–	–
C=CCOc1ccc(CN2CCC(O)=C(C(=O)NCC(=O)O)C2=O)cc1 [Ex. 4-2, N-({4-Hydroxy-2-oxo-1-[4-(prop-2-en-1-yloxy)benzyl]-1,2,5,6-tetrahydropyridin-3-yl}carbonyl)glycine]	81%	77%	–	–
